Structures are written as SMILES.

Data set [1] addresses T1, Dual specificity protein kinase TTK (Homo sapiens, UniProt P33981).
T1 sequence (P33981 whole entry): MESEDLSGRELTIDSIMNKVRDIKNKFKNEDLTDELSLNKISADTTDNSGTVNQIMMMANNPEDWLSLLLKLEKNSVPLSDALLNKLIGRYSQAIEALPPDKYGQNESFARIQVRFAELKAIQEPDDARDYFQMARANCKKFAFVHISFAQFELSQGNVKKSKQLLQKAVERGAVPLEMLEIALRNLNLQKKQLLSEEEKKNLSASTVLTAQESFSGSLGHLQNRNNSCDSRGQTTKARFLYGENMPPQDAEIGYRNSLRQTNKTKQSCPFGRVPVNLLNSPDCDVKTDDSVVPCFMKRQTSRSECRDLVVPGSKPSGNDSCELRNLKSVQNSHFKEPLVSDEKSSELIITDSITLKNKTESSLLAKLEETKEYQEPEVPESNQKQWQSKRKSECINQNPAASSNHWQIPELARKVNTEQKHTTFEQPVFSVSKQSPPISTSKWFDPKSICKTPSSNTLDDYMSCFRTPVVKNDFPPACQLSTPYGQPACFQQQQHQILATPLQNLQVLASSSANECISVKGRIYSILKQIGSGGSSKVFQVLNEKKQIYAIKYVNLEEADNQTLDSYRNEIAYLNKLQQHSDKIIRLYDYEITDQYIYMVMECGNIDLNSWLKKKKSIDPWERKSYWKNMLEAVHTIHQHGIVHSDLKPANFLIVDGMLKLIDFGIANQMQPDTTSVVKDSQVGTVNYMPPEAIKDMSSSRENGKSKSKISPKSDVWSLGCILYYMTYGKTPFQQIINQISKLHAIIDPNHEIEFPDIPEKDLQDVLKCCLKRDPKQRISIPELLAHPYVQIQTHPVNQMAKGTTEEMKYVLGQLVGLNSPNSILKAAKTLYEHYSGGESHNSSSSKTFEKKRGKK
Briefly: Binding affinity to wild-type human partial length TTK (N505 to V798 residues) expressed in bacterial expression system by active site-directed competition binding based Kinomescan method.

Data set [2] in a line: Cmax in Sprague-Dawley rat at 5 mg/kg, iv. In kind it is ADME, organism-based. Set-up: route intravenous, dose 5 mg/kg. Particulars: in vivo.
A short description of data set [3]: AUC (0 to infinity) in Sprague-Dawley rat at 25 mg/kg, po. In kind it is ADME, organism-based. Set-up: time infinity, route oral, dose 25 mg/kg. Particulars: in vivo.
Data set [4] addresses T1, Dual specificity protein kinase TTK. Briefly: Inhibition of recombinant full-length human TTK using MBP as substrate incubated for 40 mins in presence of [gamma33P]ATP by scintillation counting based radiometry assay relative to control.
The nature of data set [5]: AUC (0 to infinity) in Sprague-Dawley rat at 5 mg/kg, iv. The format is ADME, organism-based. Details: route intravenous, time infinity, dose 5 mg/kg. Particulars: in vivo.
A short description of data set [6]: Clearance in Sprague-Dawley rat at 5 mg/kg, iv. In kind it is ADME, organism-based. The following applies: in vivo.
The nature of data set [7]: Cmax in Sprague-Dawley rat at 25 mg/kg, po. Details: route oral, dose 25 mg/kg. The following applies: in vivo. The format is ADME, organism-based.
Data set [8] is described as follows: Half life in Sprague-Dawley rat at 25 mg/kg, po. In kind it is ADME, organism-based. The following applies: in vivo.
Data set [9] can be described thus: Half life in Sprague-Dawley rat at 5 mg/kg, iv. In kind it is ADME, organism-based. Particulars: in vivo.
Data set [10] can be described thus: Oral bioavailability in Sprague-Dawley rat at 25 mg/kg. In kind it is ADME, organism-based. The following applies: in vivo.
Another data set deals with HCT-116. Briefly: Antitumor activity at human HCT-116 cells xenografted in CB17-SCID mouse assessed as tumor growth inhibition at 20 mg/kg, ip administered once weekly for 16 days relative to control. In kind it is functional. Particulars: HCT-116, ip, 384 h, time 16 day, read-out: TGI.

As for `CCC(=O)N1CCC[C@H](n2c(=O)cc(C)c3cnc(Nc4ccc(N5CCN(C)CC5)cc4OC)nc32)C1`, in [1], binding was characterised by a dissociation constant (Kd) of 200 nM.
Still for that read-out and setting: for `CCC(=O)N[C@H]1CC[C@@H](n2c(=O)cc(C)c3cnc(Nc4ccc(N5CCN(C)CC5)cc4OC)nc32)CC1` the value was 0.71 nM.
For `CCC(=O)N[C@H]1CC[C@@H](n2c(=O)cc(C)c3cnc(Nc4ccc(N5CCN(C)CC5)c(C)c4)nc32)CC1`, the dissociation constant Kd in [1] was found to be 3.9 nM.
In data set [1], `COc1cc(N2CCN(C)CC2)ccc1Nc1ncc2c(C)cc(=O)n([C@H]3CC[C@@H](NC(=O)C(C)(C)C)CC3)c2n1` returned a dissociation constant (Kd) of 0.2 nM.
The same measure, in the same setting: the value for `COc1cc(N2CCN(C)CC2)ccc1Nc1ncc2c(C)cc(=O)n([C@H]3CC[C@@H](NCC4CC4)CC3)c2n1` was 6.1 nM.
On to `COc1cc(N2CCN(C)CC2)ccc1Nc1ncc2cc(C)c(=O)n([C@H]3CC[C@@H](NC(=O)C4CCCCC4)CC3)c2n1`, for which the maximum concentration (Cmax) in data set [2] came to 4740 ng/mL; in data set [7] it was 2300 ng/mL. The AUC(0-inf) in data set [3] is 33300 ng·h/mL; in data set [5], 15500 ng·h/mL. Also, the half-maximal inhibitory concentration (IC50) in data set [4] amounted to 20 nM. The compound also displayed a dissociation constant Kd in [1] of 0.17 nM. In addition, in data set [6], the clearance was 5.61 mL/min/kg. Also, the half-life in data set [8] is 457 min; in data set [9], 372 min. The bioavailability in [10] turned out to be 39.6%.
Regarding `CCC(=O)N[C@H]1CC[C@@H](n2c(=O)cc(C)c3cnc(Nc4ccc(N5CCN(C)CC5)c(OC)c4)nc32)CC1`, the Kd in [1] was determined as 4.2 nM.
On the same count and under the same terms, for `COc1cc(N2CCN(C)CC2)ccc1Nc1ncc2c(C)cc(=O)n([C@H]3CC[C@@H](NC(=O)c4cccc5ccccc45)CC3)c2n1` the value was 1.1 nM; for `CCC(=O)N1CC[C@@H](n2c(=O)cc(C)c3cnc(Nc4ccc(N5CCN(C)CC5)cc4OC)nc32)C1`, 310 nM.
Still for that read-out and setting: the value for `CCC(=O)N1CCC[C@@H](n2c(=O)cc(C)c3cnc(Nc4ccc(N5CCN(C)CC5)cc4OC)nc32)C1` was 250 nM; that for `CCC(=O)N1CC(n2c(=O)cc(C)c3cnc(Nc4ccc(N5CCN(C)CC5)cc4OC)nc32)C1` was greater than 1000 nM.
Regarding `CCC(=O)N[C@H]1CC[C@@H](n2c(=O)cc(C3CC3)c3cnc(Nc4ccc(N5CCN(C)CC5)cc4OC)nc32)CC1`, the concentration for half-maximal inhibition (IC50) in data set [4] came to 50 nM. The same compound yielded a Kd in data set [1] of 7.9 nM.
As to `COc1cc(N2CCN(C)CC2)ccc1Nc1ncc2c(C)cc(=O)n([C@H]3CC[C@@H](NC(=O)C(C)C)CC3)c2n1`, in data set [1], the equilibrium dissociation constant (Kd) is 0.5 nM. In other words, the sub-nanomolar range.
Take `CCC(=O)N[C@H]1CC[C@@H](n2c(=O)cc(CC)c3cnc(Nc4ccc(N5CCN(C)CC5)cc4OC)nc32)CC1`: in data set [1], the affinity, expressed as Kd, was 1.5 nM.
Same read-out and setting: for `COc1cc(N2CCN(C)CC2)ccc1Nc1ncc2c(C)cc(=O)n([C@H]3CC[C@@H](NC(=O)C45CC6CC(CC(C6)C4)C5)CC3)c2n1` the value was 0.56 nM.
Consider `COc1cc(N2CCN(C)CC2)ccc1Nc1ncc2cc(C)c(=O)n([C@H]3CC[C@@H](NC(=O)C4CCCC4)CC3)c2n1`, for which the IC50 in data set [4] was found to be 11 nM. The Kd in data set [1] was 0.17 nM.
In data set [1], `CCC(=O)N1CCC(n2c(=O)cc(C)c3cnc(Nc4ccc(N5CCN(C)CC5)cc4OC)nc32)CC1` showed an equilibrium dissociation constant (Kd) of 9.3 nM.
Same read-out and setting: the value for `COc1cc(N2CCN(C)CC2)ccc1Nc1ncc2c(C)cc(=O)n([C@H]3CC[C@@H](NC(=O)C4CC4)CC3)c2n1` was 0.41 nM; that for `CCC(=O)N[C@H]1CC[C@H](n2c(=O)cc(C)c3cnc(Nc4ccc(N5CCN(C)CC5)cc4OC)nc32)CC1` was 2.8 nM; that for `CCC(=O)N1CC[C@H](n2c(=O)cc(C)c3cnc(Nc4ccc(N5CCN(C)CC5)cc4OC)nc32)C1` was 145 nM.
The same measure, in the same setting: the value for `CCC(=O)N[C@H]1CC[C@@H](n2c(=O)cc(C)c3cnc(Nc4ccc(N5CCN(C)CC5)cc4C)nc32)CC1` was 0.63 nM; that for `COc1cc(N2CCN(C)CC2)ccc1Nc1ncc2c(C)cc(=O)n([C@H]3CC[C@@H](NC(C)=O)CC3)c2n1` was 0.72 nM.
Regarding `COc1cc(N2CCN(C)CC2)ccc1Nc1ncc2c(C)cc(=O)n([C@H]3CC[C@@H](NC(=O)C4CCCC4)CC3)c2n1`, the IC50 in data set [4] was determined as 19 nM. In data set [1], this compound registered a Kd of 0.12 nM.
Consider `CC(=O)O[C@H]1C(=O)[C@@]2(C)[C@H]([C@H](OC(=O)c3ccccc3)[C@]3(O)C[C@H](OC(=O)[C@H](O)[C@@H](NC(=O)c4ccccc4)c4ccccc4)C(C)=C1C3(C)C)[C@]1(OC(C)=O)CO[C@@H]1C[C@@H]2O` [PACLITAXEL], for which the inhibition in vivo at 20 mg/kg in the data set on HCT-116 was 52%.
Take `C=CC(=O)N1CC[C@H](n2c(=O)cc(C)c3cnc(Nc4ccc(N5CCN(C)CC5)cc4OC)nc32)C1`: in data set [1], the Kd is 190 nM.
Compound `CCC(=O)N[C@H]1CC[C@@H](n2c(=O)ccc3cnc(Nc4ccc(N5CCN(C)CC5)cc4OC)nc32)CC1` had a Kd in data set [1] of 0.41 nM.
On the same count and under the same terms, for `CCC(=O)N[C@H]1CC[C@@H](n2c(=O)c(C)cc3cnc(Nc4ccc(N5CCN(C)CC5)cc4OC)nc32)CC1` the value was 0.29 nM.
Same read-out and setting: for `CCC(=O)N[C@H]1CC[C@@H](n2c(=O)cc(-c3ccccc3)c3cnc(Nc4ccc(N5CCN(C)CC5)cc4OC)nc32)CC1` the value was 825 nM; for `COc1cc(N2CCN(C)CC2)ccc1Nc1ncc2c(C)cc(=O)n([C@H]3CC[C@@H](NC(=O)c4ccccc4)CC3)c2n1`, 0.3 nM.

The values are drawn from ChEMBL document CHEMBL4818999, “Pyrido[2, 3-d]pyrimidin-7(8H)-ones as new selective orally bioavailable Threonine Tyrosine Kinase (TTK) inhibitors” (Eur J Med Chem, 2021).
